Series [1] relates to human neonatal foreskin fibroblasts. In words: BioMAP assay HDF3CGF. The settings on record: 1 μM, prednisolone = 100%. The series is classed as cell-based. Here is the method: (§1) Next, effects of Org 214007-0 on the cytokine release by primary human whole blood cells treated with either LPS or anti-CD28/PMA were tested. […] These assays make use of different types of primary human cells, in this case coronary artery smooth muscle cells and neonatal foreskin fibroblasts, in an inflammatory environment, [28]. […] When all repressed and induced proteins are taken into account, a relative TI value for Org 214007-0 could be deduced of 1.7 in coronary artery smooth muscle cells and of 2.2 in neonatal foreskin fiboblasts.

The subject of series [2] is primary human whole blood cells. The experiment in a line: Human whole blood LPS-induced cytokine release. It counts as cell-based. The settings on record: for IC50: Whole blood cell, LPS, 24 hours, read-out: IC50, LPS-induced TNFα release; for Max. eff., LPS-induced TNFα repression: prednisolone = 100%. The text has this: Hereafter, supernatant was carefully collected and tested at the most optimal dilution (predetermined by a titration study on control samples) in a human TNFα-specific ELISA (for the LPS stimulated samples) or in a human IL-5-specific or human G-CSF-specific ELISA (for the PMA/anti-CD28 stimulated samples) (Duoset, R&D systems USA).

Series [3] has as its system coronary artery smooth muscle cells. In words: BioMAP assay CASM3C. The series is classed as cell-based, human. The settings on record: 1 μM, prednisolone = 100%. How it is done:
as §1

The subject of series [4] is THP-1 cells. The experiment in a line: Gene expression profiling (microarray) in THP-1 cells. The series is classed as cell-based, human. Conditions: THP-1, 1 μM, 6 hours, top 25 genes, prednisolone set at 100%; for Max. eff., mean repression of genes, microarray: IFNγ/TNFα; for Max. eff., mean induction of genes, microarray: non-stimulated. How it is done:
THP-1 cells were incubated with glucocorticoid in the presence of either DMSO (control) or IFNγ/TNFα (220 ng/ml/375 ng/ml). After 6 hours total RNA was isolated and further processed for microarray hybridization as described for the HepG2 cells. The data from all microarray experiments have been deposited in the NCBI Gene Expression Omnibus (GEO) under accession number (identifier will be included in proof). […] Expression of FKBP51, MCP-1, IL-6 and IL-8 protein was measured by specific […]; #A[…] [MCP-1], #A[…] [IL-6] and #A[…] [IL-8]) according to the manufacturer manual. […] Expression of FKBP51, DUSP1 and GILZ was measured by Q-PCR according to the same procedure as described for the HepG2 cells. In this case the following primer-pairs were used: for GAPDH: [NT] and [NT]; for FKBP51: [NT] and [NT]; for DUSP1: [NT] and [NT]; for GILZ: [NT] and [NT]. For the evaluation of protein expression, cells were incubated overnight with a whole dose range of compounds. Supernatants were collected to determine cytokine levels and cell lysates were generated by repeated freeze-thaw cycles to measure expression of FKBP51 protein. Expression of FKBP51, MCP-1, IL-6 and IL-8 was measured by specific […]; #A[…] [MCP-1], #A[…] [IL-6] and #A[…] [IL-8]) according to the manufacturer manual. […] Samples were incubated for 60 min at 23 C. […] Plates were measured using an EnVision-Alpha Reader.

Series [5] concerns LPS-induced TNFα release. The experiment in a line: LPS-induced TNFα acute inflammation mouse model. It counts as in vivo. Conditions: oral; for ED50: Mus musculus, 1 hour before LPS i.p., Balb/c mice, read-out: ED50, inhibition of LPS-induced serum TNFα. How it is done: For both the LPS-induced TNFα as well as the anti-CD3 induced IL-2 model, female Balb/c mice of 8–12 week old were used. Mice were treated orally with 0.2 ml compound or vehicle (water/mannitol (5%) with 5% DMSO/5% chremophore for the LPS model or with 0.5% gelatine for the anti-CD3 model). One hour after oral treatment animals were challenged i.p. with 0.2 ml of either 20 μg/mouse LPS (Sigma, E. coli serotype 055:B5) or 5 µg/mouse hamster anti-CD3 monoclonal (BD Biosciences Pharmingen, art. nr. 553057, clone 145-2C11). Ninety minutes after LPS injection or 3 hours after anti-CD3 challenge, blood samples were collected and serum levels of TNFα or IL-2 were determined via specific ELISAs (BD Biosciences Pharmingen, San Diego, CA, USA). In the experiment that included treatment with RU486 to block GR, mice were dosed subcutaneously with 50 mg/kg RU486 30 minutes before the oral compound dosing. ED50 and % efficacy (maximal percentage inhibition of TNFα or IL-2 release) are determined using a 3 parameter sigmoidal curve calculation. Statistical analysis of the results was performed using an one-way ANOVA (log) test.

Series [6] can be described thus: Pharmacokinetics in mice. It counts as in vivo, mouse. The settings on record: for half-life: read-out: T1/2 eli (converted); for C0: extrapolated to T=0, read-out: Cmax; for Tmax: female Balb/c mice. Here is the method: For each time-point 3 female Balb/c mice are used. Tmax = Time of maximum observed concentration (in case of i.v. administration Tmax = 0 h); time is expressed in hours (h). Cmax = concentration corresponding to Tmax and expressed in nmol/ml, for i.v. dosing Cmax is extrapolated to T=0. T 1/2 eli(mination) (terminal half-life) = ln(2)/λz expressed in h(ours). AUClast = Area under the curve from the time of dosing (Dosing-time) to the last measurable concentration. AUCinf = predicted Area Under the Curve from the time of dosing extrapolated to infinity and expressed in “h*nmol/ml”. Vz = Volume of distribution based on the terminal phase = Dose / λz* AUCinf and expressed inL/kg. Cl = total body clearance = Dose / AUCinf and expressed in L/h/kg. MRTinf = mean residence time (MRT) extrapolated to infinity for non-infusion models, expressed in h. Vss = gives an estimate of the volume of distribution at steady-state and is expressed in L/kg. […] The bioavailability is expressed in %. i.v. = intraveneously, p.o. = per oral

[7] abbreviates: female, Balb/c, mouse, in vivo, iv, 10 umol/kg, 10 μmol/kg i.v.
Setting [8] is: female, Balb/c, mouse, in vivo, po, 20 umol/kg, 20 μmol/kg p.o.
The mark [9] stands for this setting: female, Balb/c, mouse, in vivo, iv, 4 umol/kg, 4 μmol/kg i.v.
Where [10] appears, read: female, Balb/c, mouse, in vivo, po, 10 umol/kg, 10 μmol/kg p.o.

Where two headings read alike, the source gives them in different places.

The term IC50 denotes the concentration at which inhibition is half-maximal. As a reminder, the ED50 is the dose at which the effect has come halfway, by size or by number of responders. For orientation: AUC(0-inf) means the area under the concentration-time curve extrapolated to infinity. High values mean more exposure, low ones less exposure. The AUC(0-t) is the area under the concentration-time curve up to a stated or last time point. In general, MRT inf refers to a mean duration of stay, worked out from the concentration-time curve. As usually defined, the clearance is the volume of plasma or blood freed of the substance per unit of time. The low end stands for a low capacity for elimination, the high end for a high capacity for elimination. As usually defined, the Cmax is the highest concentration seen after dosing. A word on the Tmax: it is the time from dosing to the highest level. The bioavailability is the share of a dose that reaches the circulation, judged against a reference dose that is usually intravenous.

On to `C[C@]12C=CC(=O)C=C1CC[C@@H]1[C@@H]2[C@@H](O)C[C@@]2(C)[C@H]1CC[C@]2(O)C(=O)CO` [prednisolone, reference compound], for which the “Max. eff., activation of PAI-1” value in series [1] is given as 100%. For the same compound, in series [2], the IC50 was 0.027 µM and the “Max. eff., LPS-induced TNFα repression” value was found to be 100%. Besides, in series [3], the “Max. eff., induction of serum amyloid A (SAA)” value stood at 100%. In series [4], the “Max. eff., mean repression of genes, microarray” value was 100% and the “Max. eff., mean induction of genes, microarray” value was 100%. Also, the ED50 in series [5] stood at 1 mg/kg. In series [6] (20 μmol/kg p.o.), the Cl is 30 mL/min/kg and the Vz is listed as 1.2 L/kg. Also, in series [6] (setting [7]), the AUC(0-inf) came out at 7.1 µM·h, the AUC(0-t) was found to be 7.1 µM·h, the MRT inf was found to be 24 min and the clearance was 23.3 mL/min/kg. Also, in series [6] (setting [7]), the half-life was 15.6 min. The Vd in series [6] (female, Balb/c, mouse, in vivo, iv, 10 umol/kg, 10 μmol/kg i.v., read-out: Vss) is 0.5 L/kg. Besides, the C0 in series [6] (female, Balb/c, mouse, in vivo, iv, 10 μmol/kg i.v.) is 18 µM. Also, in series [6] (setting [8]), the AUC(0-inf) is 11 µM·h, the exposure AUC(0-t) came to 11 µM·h, the Cmax worked out at 11.5 µM and the MRT inf was found to be 48 min. The half-life in series [6] (setting [8]) is 24 min. In addition, the Tmax in series [6] (mouse, in vivo, po, 20 umol/kg, 20 μmol/kg p.o.) is 18 min.
Regarding `Cc1nnsc1C(=O)N[C@H]1CCN2c3ccc(C#N)cc3[C@@H](C)c3ccccc3[C@@H]2C1` [Org 214007-0], the “Max. eff., activation of PAI-1” value in series [1] is given as 55%. Further, in series [2], the IC50 is 0.05 µM and the “Max. eff., LPS-induced TNFα repression” value is 68 (±8.7) %. Moreover, in series [3], the “Max. eff., induction of serum amyloid A (SAA)” value was determined as 58%. Moreover, the “Max. eff., mean repression of genes, microarray” value in series [4] was determined as 48.3%. For the same compound, in series [4] (listed as Org), the “Max. eff., mean induction of genes, microarray” value stood at 18.9%. In series [5], the median effective dose (ED50) is 0.5 mg/kg and the “maximal efficacy, inhibition of LPS-induced TNFα release” value is on record as 90%. Further, in series [6] (10 μmol/kg p.o.), the Cl is 6.7 mL/min/kg and the Vz was 3.2 L/kg. In series [6] (setting [9]), this compound showed an AUC(0-inf) of 10.8 µM·h, an AUC(0-t) of 10.1 µM·h, an MRT inf of 474 min and a clearance of 6.67 mL/min/kg. Moreover, in series [6] (setting [9]), the half-life is 384 min. Further, the Vd in series [6] (female, Balb/c, mouse, in vivo, iv, 4 umol/kg, 4 μmol/kg i.v., read-out: Vss) was determined as 2.9 L/kg. In addition, the Vd in series [6] (female, Balb/c, mouse, in vivo, iv, 4 umol/kg, 4 μmol/kg i.v., read-out: Vz) came out at 3.4 L/kg. Moreover, in series [6] (female, Balb/c, mouse, in vivo, iv, 4 μmol/kg i.v.), the C0 is 2.19 µM. In addition, in series [6] (setting [10]), the AUC(0-inf) was found to be 24.2 µM·h, the AUC(0-t) amounted to 23.2 µM·h, the peak level (Cmax) was 2.12 µM and the MRT inf worked out at 426 min. For the same compound, the half-life in series [6] (setting [10]) was 318 min. In series [6] (female, Balb/c, mouse, in vivo, po, 10 umol/kg, 10 μmol/kg p.o., read-out: F (% bioavailability)), the bioavailability came out at 89.7%. Further, the Tmax in series [6] (mouse, in vivo, po, 10 umol/kg, 10 μmol/kg p.o.) was 30 min.
